Measurements from US9839642B2, “Beta-tetrazolyl-propionic acids as metallo-beta-lactamase inhibitors” (priority 2014, dated 2017).
Like-named read-outs stand apart in the source and are kept apart here.

What was measured:
NDM-1 = NDM-1 (Klebsiella pneumoniae, UniProt C7C422); experiment: Enzyme activity: determination of IC50, fluorescence assay with CCF2-FA substrate; assay type: biochemical; conditions: CCF2-FA 1.25 μM, 2 hours at 25° C.
Method in brief: (§1)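 In pH 7 phosphate buffer (100 mM) with 10 μM ZnSO4 and 0.005% Tween-20, CCF2-FA substrate (1.25 μM final) was hydrolysed for 2 h at 25 °C by NDM-1, IMP-1 or VIM-1 at 1, 2 or 30 pM in the presence of inhibitor at 20–0.00063 μM. Emission 460 nm/excitation 405 nm; 4-parameter curve fit gave IC50.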

IMP-1 = IMP-1 (Serratia marcescens, UniProt P52699); experiment: as above; assay type: biochemical; conditions: IMP-1 enzyme 2 pM, CCF2-FA 1.25 μM, 2 hours at 25° C.; read-out: IMP1 IC50
Method in brief: as §1

VIM-1 = VIM-1 (Pseudomonas aeruginosa, UniProt A0A0F7KYQ8); experiment: as above; assay type: biochemical; conditions: VIM-1 enzyme 30 pM, CCF2-FA 1.25 μM, 2 hours at 25° C.; read-out: VIM1 IC50
Method in brief: as §1

[1] = system: Klebsiella pneumoniae expressing VIM-1 (IHMA599644); experiment: Antibiotic potentiation activity: synergistic concentration (MITC95) with imipenem, growth by OD600; assay type: cell-based; conditions: K. pneumoniae IHMA599644 (VIM-1), 95% inhibition of growth
Method in brief: (§2)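 MITC95 = lowest inhibitor concentration giving 95% growth inhibition, read by absorbance after 22–24 h at 35° C. Compound range 200 μM to 0.195 μM, imipenem fixed at 1 or 4 μg/ml, bacteria in 1.1×CAMHB from saline suspension diluted 1:100.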

[2] = system: Serratia marcescens expressing IMP-1 (CL5741); experiment: as above; assay type: cell-based; conditions: S. marcescens CL5741 (IMP-1), 95% inhibition of growth
Method in brief: as §2

[3] = system: Escherichia coli expressing NDM-1 (CLB30016); experiment: as above; assay type: cell-based; conditions: E. coli CLB30016 (NDM-1), 95% inhibition of growth
Method in brief: as §2

[4] = NDM-1 enzyme 1 pM, read-out: NDM1 IC50

IMP-1, sequence (P52699 19-246, looked up, species assumed): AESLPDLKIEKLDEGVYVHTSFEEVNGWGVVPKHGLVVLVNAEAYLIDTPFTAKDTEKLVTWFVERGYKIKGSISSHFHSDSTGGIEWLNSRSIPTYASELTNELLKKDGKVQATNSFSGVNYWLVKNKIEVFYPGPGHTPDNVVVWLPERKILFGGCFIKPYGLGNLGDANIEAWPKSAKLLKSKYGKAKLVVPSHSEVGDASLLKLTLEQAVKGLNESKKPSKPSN
NDM-1, sequence (C7C422 29-270, looked up, species assumed): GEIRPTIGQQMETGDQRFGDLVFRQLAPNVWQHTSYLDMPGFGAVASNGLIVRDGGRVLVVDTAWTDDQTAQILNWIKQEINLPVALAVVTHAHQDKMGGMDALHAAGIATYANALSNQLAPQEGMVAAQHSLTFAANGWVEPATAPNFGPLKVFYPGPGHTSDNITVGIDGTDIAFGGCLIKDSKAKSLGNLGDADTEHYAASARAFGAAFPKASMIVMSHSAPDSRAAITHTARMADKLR

SMILES: CCC[C@H](C(=O)O)[C@H](Cc1cnc(N2CCNCC2)nc1)c1nnn[nH]1 [Example 288, (S)-2-((S)-2-(2-(piperazin-1-yl)pyrimidin-5-yl)-1-(1H-tetrazol-5-yl)ethyl)pentanoic acid]
- IC50 (NDM-1; NDM1 IC50, NDM-1 enzyme 1 pM): 520 nM
- IC50 (IMP-1): > 20000 nM
- IC50 (VIM-1): 4.1 nM
- VIM1 KP599644 MITC95 [1]: 12.5 µM
- IMP1 SM5741 MITC95 [2]: 150 µM
- NDM1 EC30016 MITC95 [3]: 12.5 µM

SMILES: CCC[C@H](C(=O)O)[C@H](Cc1cnc(OC2CCNCC2)nc1)c1nnn[nH]1 [Example 289, (S)-2-((S)-2-(2-(piperidin-4-yloxy)pyrimidin-5-yl)-1-(1H-tetrazol-5-yl)ethyl)pentanoic acid]
- IC50 (NDM-1; [4]): 3100 nM
- IC50 (IMP-1): > 20000 nM
- IC50 (VIM-1): 6.8 nM
- VIM1 KP599644 MITC95 [1]: 38 µM
- IMP1 SM5741 MITC95 [2]: >200 µM
- NDM1 EC30016 MITC95 [3]: 25 µM

SMILES: CCC[C@H](C(=O)O)[C@H](Cc1cnc(N(C)C)nc1)c1nnn[nH]1 [Example 290, (S)-2-((S)-2-(2-(dimethylamino)pyrimidin-5-yl)-1-(1H-tetrazol-5-yl)ethyl)pentanoic acid]
- IC50 (NDM-1; [4]): 110 nM
- IC50 (IMP-1): 14000 nM
- IC50 (VIM-1): 2.1 nM
- VIM1 KP599644 MITC95 [1]: 38 µM
- IMP1 SM5741 MITC95 [2]: 150 µM
- NDM1 EC30016 MITC95 [3]: 18.8 µM

SMILES: CCC[C@H](C(=O)[O-])[C@H](Cc1ccc(C2CC[N+](C)(C)CC2)nc1)c1nnn[nH]1 [Example 291, (S)-2-((S)-2-(6-(1,1-dimethylpiperidin-1-ium-4-yl)pyridin-3-yl)-1-(1H-tetrazol-5-yl)ethyl)pentanoate]
- IC50 (NDM-1; [4]): 650 nM
- IC50 (IMP-1): 6500 nM
- IC50 (VIM-1): 120 nM
- VIM1 KP599644 MITC95 [1]: 38 µM
- IMP1 SM5741 MITC95 [2]: 50 µM
- NDM1 EC30016 MITC95 [3]: 3.1 µM

SMILES: CCC[C@H](C(=O)[O-])[C@H](Cc1ccc(C2CCC[N+](C)(C)C2)nc1)c1nnn[nH]1 (stereo partly drawn) [Example 292, (2S)-2-((1S)-2-(6-(1,1-dimethylpiperidin-1-ium-3-yl)pyridin-3-yl)-1-(1H-tetrazol-5-yl)ethyl)pentanoate]
- IC50 (NDM-1; [4]): 2600 nM
- IC50 (IMP-1): 16000 nM
- IC50 (VIM-1): 78 nM
- VIM1 KP599644 MITC95 [1]: 50 µM
- IMP1 SM5741 MITC95 [2]: 150 µM
- NDM1 EC30016 MITC95 [3]: 38 µM

SMILES: CCC[C@H](C(=O)[O-])[C@H](Cc1ccc(C2=CCC[N+](C)(C)C2)nc1)c1nnn[nH]1 [Example 293, (S)-2-((S)-2-(1′,1′-dimethyl-1′,2′,5′,6′-tetrahydro-[2,3′-bipyridin]-1′-ium-5-yl)-1-(1H-tetrazol-5-yl)ethyl)pentanoate]
- IC50 (NDM-1; [4]): 2400 nM
- IC50 (IMP-1): 16000 nM
- IC50 (VIM-1): 22 nM
- VIM1 KP599644 MITC95 [1]: 50 µM
- IMP1 SM5741 MITC95 [2]: 100 µM
- NDM1 EC30016 MITC95 [3]: 25 µM

SMILES: CCC[C@H](C(=O)[O-])[C@H](Cc1ccc(C2CC[N+](C)(C)CC2)cc1)c1nnn[nH]1 [Example 294, (S)-2-((S)-2-(4-(1,1-dimethylpiperidin-1-ium-4-yl)phenyl)-1-(1H-tetrazol-5-yl)ethyl)pentanoate]
- IC50 (NDM-1; [4]): 170 nM
- IC50 (IMP-1): 690 nM
- IC50 (VIM-1): 76 nM
- VIM1 KP599644 MITC95 [1]: 25 µM
- IMP1 SM5741 MITC95 [2]: 9.4 µM
- NDM1 EC30016 MITC95 [3]: 12.5 µM

SMILES: CCC[C@H](C(=O)[O-])[C@H](Cc1ccc(C2=CC[N+](C)(C)CC2)cc1)c1nnn[nH]1 [Example 295, (S)-2-((S)-2-(4-(1,1-dimethyl-1,2,3,6-tetrahydropyridin-1-ium-4-yl)phenyl)-1-(1H-tetrazol-5-yl)ethyl)pentanoate]
- IC50 (NDM-1; [4]): 440 nM
- IC50 (IMP-1): 1100 nM
- IC50 (VIM-1): 1600 nM
- VIM1 KP599644 MITC95 [1]: 25 µM
- IMP1 SM5741 MITC95 [2]: 12.5 µM
- NDM1 EC30016 MITC95 [3]: 12.5 µM

SMILES: CCC[C@H](C(=O)O)[C@H](Cc1ccc(C2CCN(C(=N)N)CC2)cc1)c1nnn[nH]1 [Example 296, (S)-2-((S)-2-(4-(1-carbamimidoylpiperidin-4-yl)phenyl)-1-(1H-tetrazol-5-yl)ethyl)pentanoic acid]
- IC50 (NDM-1; [4]): 32 nM
- IC50 (IMP-1): 180 nM
- IC50 (VIM-1): 21 nM
- VIM1 KP599644 MITC95 [1]: 12.5 µM
- IMP1 SM5741 MITC95 [2]: 6.2 µM
- NDM1 EC30016 MITC95 [3]: 4.7 µM

SMILES: CCC[C@H](C(=O)O)[C@H](Cc1ccc(C2CCN(C=N)CC2)cc1)c1nnn[nH]1 [Example 297, (S)-2-((S)-2-(4-(1-(iminomethyl)piperidin-4-yl)phenyl)-1-(1H-tetrazol-5-yl)ethyl)pentanoic acid]
- IC50 (NDM-1; [4]): 26 nM
- IC50 (IMP-1): 200 nM
- IC50 (VIM-1): 25 nM
- VIM1 KP599644 MITC95 [1]: 18.8 µM
- IMP1 SM5741 MITC95 [2]: 6.2 µM
- NDM1 EC30016 MITC95 [3]: 4.7 µM

SMILES: CCC[C@H](C(=O)O)[C@H](Cc1ccc(C2CCN(C(=N)N)CC2)nc1)c1nnn[nH]1 [Example 298, (S)-2-((S)-2-(6-(1-carbamimidoylpiperidin-4-yl)pyridin-3-yl)-1-(1H-tetrazol-5-yl)ethyl)pentanoic acid]
- IC50 (NDM-1; [4]): 110 nM
- IC50 (IMP-1): 2700 nM
- IC50 (VIM-1): 10 nM
- VIM1 KP599644 MITC95 [1]: 12.5 µM
- IMP1 SM5741 MITC95 [2]: 25 µM
- NDM1 EC30016 MITC95 [3]: 1.6 µM

SMILES: CCC[C@H](C(=O)O)[C@H](Cc1ccc(C2CCN(C=N)CC2)nc1)c1nnn[nH]1 [Example 299, (S)-2-((S)-2-(6-(1-(iminomethyl)piperidin-4-yl)pyridin-3-yl)-1-(1H-tetrazol-5-yl)ethyl)pentanoic acid]
- IC50 (NDM-1; [4]): 220 nM
- IC50 (IMP-1): 4400 nM
- IC50 (VIM-1): 22 nM
- VIM1 KP599644 MITC95 [1]: 25 µM
- IMP1 SM5741 MITC95 [2]: 50 µM
- NDM1 EC30016 MITC95 [3]: 1.6 µM

SMILES: CCC[C@H](C(=O)O)[C@H](Cc1ccc(C2CCN(C)CC2)cc1)c1nn[nH]n1 [Example 300, (2S)-2-[(1S)-2-[4-(1-methylpiperidin-4-yl)phenyl]-1-(2H-tetrazol-5-yl)ethyl]pentanoic acid]
- IC50 (NDM-1; [4]): 550 nM
- IC50 (IMP-1): 2100 nM
- IC50 (VIM-1): 140 nM
- VIM1 KP599644 MITC95 [1]: 100 µM
- IMP1 SM5741 MITC95 [2]: 25 µM
- NDM1 EC30016 MITC95 [3]: 50 µM

SMILES: CCC[C@H](C(=O)O)[C@H](Cc1ccc(-c2ccc(CC3CCNCC3)cc2)cc1)c1nn[nH]n1 [Example 301, (2S)-2-[(1S)-2-[4′-(piperidin-4-ylmethyl)biphenyl-4-yl]-1-(2H-tetrazol-5-yl)ethyl]pentanoic acid]
- IC50 (NDM-1; [4]): 43 nM
- IC50 (IMP-1): 68 nM
- IC50 (VIM-1): 31 nM
- VIM1 KP599644 MITC95 [1]: 100 µM
- IMP1 SM5741 MITC95 [2]: 2.3 µM
- NDM1 EC30016 MITC95 [3]: 12.5 µM

SMILES: CCC[C@H](C(=O)O)[C@H](Cc1ccc(C2=CCCNC2)cc1)c1nn[nH]n1 [Example 302, (2S)-2-[(1S)-2-[4-(1,2,5,6-tetrahydropyridin-3-yl)phenyl]-1-(2H-tetrazol-5-yl)ethyl]pentanoic acid]
- IC50 (NDM-1; [4]): 980 nM
- IC50 (IMP-1): 3100 nM
- IC50 (VIM-1): 18 nM
- VIM1 KP599644 MITC95 [1]: 50 µM
- IMP1 SM5741 MITC95 [2]: 50 µM
- NDM1 EC30016 MITC95 [3]: 38 µM

SMILES: CC(C)C[C@H](C(=O)O)[C@H](Cc1ccc(N2CCCC2c2ccccc2)nc1)c1nnn[nH]1 (stereo partly drawn) [Example 303, (2S)-4-methyl-2-[(1S)-2-[6-(2-phenylpyrrolidin-1-yl)pyridin-3-yl]-1-(1H-tetrazol-5-yl)ethyl]pentanoic acid]
- IC50 (NDM-1; [4]): 14 nM
- IC50 (IMP-1): 96 nM
- IC50 (VIM-1): 3.9 nM
- VIM1 KP599644 MITC95 [1]: 200 µM
- IMP1 SM5741 MITC95 [2]: 4.7 µM
- NDM1 EC30016 MITC95 [3]: 18.8 µM

SMILES: CC(C)C[C@H](C(=O)O)[C@H](Cc1ccc(N2CCCC2)nc1)c1nnn[nH]1 [Example 304, (2S)-4-methyl-2-[(1S)-2-(6-pyrrolidin-1-ylpyridin-3-yl)-1-(1H-tetrazol-5-yl)ethyl]pentanoic acid]
- IC50 (NDM-1; [4]): 170 nM
- IC50 (IMP-1): 1300 nM
- IC50 (VIM-1): 7.8 nM
- VIM1 KP599644 MITC95 [1]: 18.8 µM
- IMP1 SM5741 MITC95 [2]: 38 µM
- NDM1 EC30016 MITC95 [3]: 4.7 µM

SMILES: CNC(=O)C1CCN(c2ccc(C[C@H](c3nnn[nH]3)[C@H](CC(C)C)C(=O)O)cn2)C1 (stereo partly drawn) [Example 305, (2S)-4-methyl-2-[(1S)-2-{6-[3-(methylcarbamoyl)pyrrolidin-1-yl]pyridin-3-yl}-1-(1H-tetrazol-5-yl)ethyl]pentanoic acid]
- IC50 (NDM-1; [4]): 120 nM
- IC50 (IMP-1): 250 nM
- IC50 (VIM-1): 12 nM
- VIM1 KP599644 MITC95 [1]: 25 µM
- IMP1 SM5741 MITC95 [2]: 6.2 µM
- NDM1 EC30016 MITC95 [3]: 2.3 µM

SMILES: CC(C)C[C@H](C(=O)O)[C@H](Cc1ccc(N2CCC(CN)C2)nc1)c1nnn[nH]1 (stereo partly drawn) [Example 306, (2S)-2-[(1S)-2-{6-[3-(aminomethyl)pyrrolidin-1-yl]pyridin-3-yl}-1-(1H-tetrazol-5-yl)ethyl]-4-methylpentanoic acid]
- IC50 (NDM-1; [4]): 670 nM
- IC50 (IMP-1): 2700 nM
- IC50 (VIM-1): 13 nM
- VIM1 KP599644 MITC95 [1]: 12.5 µM
- IMP1 SM5741 MITC95 [2]: 25 µM
- NDM1 EC30016 MITC95 [3]: 3.1 µM
